Reference: patent US12209145B2, “PCSK9 antagonist compounds” (Merck Sharp & Dohme LLC, priority 2018, dated 2025)

Legend:
Assay type in all cases: binding
PCSK9 [1] = target: T1, PCSK9 (Homo sapiens, UniProt Q8NBP7); test: PCSK9 Alexa FRET Plus TR-FRET assay (displacement of AlexaFluor647 tagged cyclic peptide Reagent B); details: Ki Plus, 0.5 nM biotinylated PCSK9, 960 nM AF cyclic peptide Reagent B; Ki calculated from IC50 and KD of AF peptide
T1 construct: Biotinylated PCSK9 was obtained commercially; purchased
Method in brief: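 TR-FRET displacement using 0.5 nM biotinylated PCSK9 with 1.25 nM streptavidin-Eu and 960 nM AlexaFluor-tagged cyclic peptide in pH 7.4 HEPES with CaCl2, at least 2 h at RT. IC50 from sigmoidal fit, converted to Ki using the peptide KD; falling Eu counts flag false positives.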

PCSK9 [2] = target: T1, PCSK9; test: PCSK9 Alexa FRET Standard TR-FRET assay (displacement of AlexaFluor647 tagged cyclic peptide Reagent A)
Protocol: The following is a description of the assays used to determine activity of compounds of the invention, and any comparator compounds reported, toward PCSK9 antagonism. Biotinylated PCSK9 was obtained commercially.
Alexa FRET Standard TR-FRET
A solution containing 1 nM biotinylated PCSK9+2.5 nM Lance Streptavidin Europium (Strep-Eu) is made in 50 mM HEPES pH 7.4, 0.15 M NaCl, 5 mM CaCl2, 0.01% BSA, and 0.01% Surfactant P20. A separate solution containing 40 nM of the AlexaFluor tagged cyclic peptide is made in the same buffer system. An Echo is used to transfer 0.750 ul of compound to an assay plate followed by the addition of 15 ul of PCSK9+Stept-Eu and 15 ul of AF peptide. The final assay volume is 30.750 ul containing 0.5 nM PCSK9, 1.25 nM Strep-Eu, and 20 nM AF cyclic peptide. The reaction is incubated at room temperature for at least two hours prior to fluorescence measurements using an Envision Multilabel Reader. […] values are determined by fitting data to a sigmoidal dose-response curve using nonlinear regression. Ki is then calculated from the IC50 and the KD of AF cyclic peptide. Counts (B-counts) of the europium-labeled PCSK9 are followed to observe if compounds are adversely PCSK9. A fall off of the B-counts likely indicates a false positive of inhibition. Data from this procedure is reported as “A=‘numerical value’ (nanomolar)”
Activity data obtained by one or both of the above-described procedures is reported for selected example compounds of the invention in the following format: Example No.: A (standard TR Fret)=‘numerical value’; P (Alexa Fret plus standard TR Fret)=‘numerical value’/, note that all values reported are nanomolar.

PCSK9 [3] = target: T1, PCSK9; test: PCSK9 Alexa FRET Ultra TR-FRET assay (displacement of AlexaFluor647 tagged cyclic peptide); details: Ki Ultra, 0.5 nM biotinylated PCSK9, 960 nM AF cyclic peptide; Ki calculated from IC50 and KD of AF peptide
Method in brief: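 Biotinylated PCSK9 (0.5 nM final) with 1.25 nM Strep-Eu and 960 nM AlexaFluor-tagged cyclic peptide in HEPES pH 7.4, NaCl, CaCl2, BSA, P20; ≥2 h at room temperature. IC50 from sigmoidal fit, converted to Ki (nM) using peptide KD; falling Eu counts flag false positives.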

T1 sequence (Q8NBP7 153-692): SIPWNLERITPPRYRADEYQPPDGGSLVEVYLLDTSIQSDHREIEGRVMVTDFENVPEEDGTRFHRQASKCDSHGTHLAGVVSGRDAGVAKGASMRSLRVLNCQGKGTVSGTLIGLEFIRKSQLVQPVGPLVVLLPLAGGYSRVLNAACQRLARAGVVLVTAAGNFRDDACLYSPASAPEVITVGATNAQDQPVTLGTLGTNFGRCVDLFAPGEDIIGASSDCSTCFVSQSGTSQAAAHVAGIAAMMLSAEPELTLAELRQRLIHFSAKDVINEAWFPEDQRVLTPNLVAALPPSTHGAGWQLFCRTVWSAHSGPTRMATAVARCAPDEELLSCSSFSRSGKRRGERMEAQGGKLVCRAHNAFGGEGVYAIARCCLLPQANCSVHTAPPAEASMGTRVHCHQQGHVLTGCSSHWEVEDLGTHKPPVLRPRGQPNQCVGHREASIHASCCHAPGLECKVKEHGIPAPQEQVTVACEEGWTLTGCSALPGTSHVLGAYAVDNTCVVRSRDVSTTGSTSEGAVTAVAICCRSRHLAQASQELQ

| Structure (SMILES) | Ki (PCSK9 [1]) | Ki (PCSK9 [2]) | Ki (PCSK9 [3]) |
| --- | --- | --- | --- |
| COc1ccc(C[C@@H]2NC(=O)[C@H]([C@@H](C)O)NC(=O)[C@@H]3[C@@H]4CCN3C(=O)[C@@H]3Cc5cn(c6ccc(F)cc56)CCCCCCN(Cc5ccc(cc5)CCNC(=O)[C@]5(C)CCCN5C2=O)C(=O)CCC(=O)N[C@@H](C)C(=O)N[C@H](CNC(=O)CCOCCOCCCN(C)C)C(=O)N[C@@H](Cc2cccc(c2)CNC(=O)CO4)C(=O)N3)cc1 [Ex-50] | 0.0105 nM | < 1.26 nM | 0.00443 nM |
| COc1ccc(C[C@@H]2NC(=O)[C@H]([C@@H](C)O)NC(=O)[C@@H]3[C@@H]4CCN3C(=O)[C@@H]3Cc5cn(c6ccc(F)cc56)C/C=C/CCCN(Cc5ccc(cc5)CCNC(=O)[C@]5(C)CCCN5C2=O)C(=O)CCC(=O)N[C@@H](C)C(=O)N[C@H](CN)C(=O)N[C@@H](Cc2cccc(c2)CNC(=O)CO4)C(=O)N3)cc1 [Ex-51] | < 0.00558 nM | < 1.26 nM | 0.00597 nM |
| COc1ccc(C[C@@H]2NC(=O)[C@H]([C@@H](C)O)NC(=O)[C@@H]3[C@@H]4CCN3C(=O)[C@@H]3Cc5cn(c6ccc(F)cc56)C/C=C/CCCN(Cc5ccc(cc5)CCNC(=O)[C@]5(C)CCCN5C2=O)C(=O)CCC(=O)N[C@@H](C)C(=O)N[C@H](CNC(=O)CCOCCOCC[N+](C)(C)C)C(=O)N[C@@H](Cc2cccc(c2)CNC(=O)CO4)C(=O)N3)cc1 [Ex-52] | < 0.00558 nM | < 1.26 nM | 0.00359 nM |
| COc1ccc(C[C@@H]2NC(=O)[C@H]([C@@H](C)O)NC(=O)[C@@H]3[C@@H]4CCN3C(=O)[C@@H]3Cc5cn(c6ccc(F)cc56)C/C=C/COc5cc(ccc5CNC(=O)CCC(=O)N[C@@H](C)C(=O)N[C@H](CN)C(=O)N[C@@H](Cc5cccc(c5)CNC(=O)CO4)C(=O)N3)CCNC(=O)[C@]3(C)CCCN3C2=O)cc1 [Ex-53] | 0.0963 nM | < 1.26 nM | 0.215 nM |
| COc1ccc(C[C@@H]2NC(=O)[C@H]([C@@H](C)O)NC(=O)[C@@H]3[C@@H]4CCN3C(=O)[C@@H]3Cc5cn(c6ccc(F)cc56)CCCCOc5cc(ccc5CNC(=O)CCC(=O)N[C@@H](C)C(=O)N[C@H](CN)C(=O)N[C@@H](Cc5cccc(c5)CNC(=O)CO4)C(=O)N3)CCNC(=O)[C@]3(C)CCCN3C2=O)cc1 [Ex-54] | 0.367 nM | < 1.26 nM | 0.484 nM |
| COc1ccc(C[C@@H]2NC(=O)[C@H]([C@@H](C)O)NC(=O)[C@@H]3[C@@H]4CCN3C(=O)[C@@H]3Cc5cn(c6ccc(F)cc56)CCCCOc5cc(ccc5CNC(=O)CCC(=O)N[C@@H](C)C(=O)N[C@H](CNC(=O)CCOCCOCC[N+](C)(C)C)C(=O)N[C@@H](Cc5cccc(c5)CNC(=O)CO4)C(=O)N3)CCNC(=O)[C@]3(C)CCCN3C2=O)cc1 [Ex-55] | 0.0724 nM | < 1.26 nM | 0.238 nM |
| COc1ccc(C[C@@H]2NC(=O)[C@H]([C@@H](C)O)NC(=O)[C@@H]3[C@@H]4CCN3C(=O)[C@@H]3Cc5cn(c6ccc(F)cc56)CCCCCCN(Cc5ccc(cc5)CCNC(=O)[C@]5(C)CCCN5C2=O)C(=O)CCC(=O)N[C@@H](C)C(=O)N[C@H](CNC(=O)Cc2cccc(OCCC[N+](C)(C)C)c2)C(=O)N[C@@H](Cc2cccc(c2)CNC(=O)CO4)C(=O)N3)cc1 [Ex-56] | 0.0224 nM | < 1.26 nM | 0.00481 nM |
| COCCC[N+](C)(C)CCCCCC(=O)NC[C@H]1NC(=O)[C@H](C)NC(=O)CCC(=O)N2CCCCCCn3cc(c4cc(F)ccc43)C[C@@H]3NC(=O)[C@H](Cc4cccc(c4)CNC(=O)CO[C@H]4CCN(C3=O)[C@@H]4C(=O)N[C@@H]([C@@H](C)O)C(=O)N[C@@H](Cc3ccc(OC)cc3)C(=O)N3CCC[C@@]3(C)C(=O)NCCc3ccc(cc3)C2)NC1=O [Ex-57] | < 0.00558 nM | < 1.26 nM | 0.00162 nM |
| COCC[N+](C)(C)CCCCCC(=O)NC[C@H]1NC(=O)[C@H](C)NC(=O)CCC(=O)N2CCCCCCn3cc(c4cc(F)ccc43)C[C@@H]3NC(=O)[C@H](Cc4cccc(c4)CNC(=O)CO[C@H]4CCN(C3=O)[C@@H]4C(=O)N[C@@H]([C@@H](C)O)C(=O)N[C@@H](Cc3ccc(OC)cc3)C(=O)N3CCC[C@@]3(C)C(=O)NCCc3ccc(cc3)C2)NC1=O [Ex-58] | 0.00773 nM | < 1.26 nM | 0.00196 nM |
